From patent publication US20240082296A1, “TREATMENT OF MUSCLE ATROPHY USING DEXTRAN SULFATE” (TX MEDIC AB, priority 2020, published 2024)

Test system: ALS patients
Assay: serum metabolites by HPLC pre- and post-treatment in ALS patients (Example 3)
Format: in vivo, human
Description: The objective of this Example was to evaluate the effect of repeated dextran sulfate administration on the concentrations of serum metabolites in serum samples from a cohort of Swedish ALS patients who had participated in the trial entitled ‘A single-centre, open single-arm study where the safety, tolerability and efficacy of subcutaneously administered ILB® will be evaluated in patients with Amyotrophic Lateral Sclerosis’. Using a longitudinal design, this study aimed to determine the changes of selected serum metabolites in each ALS patient before and after weekly dextran sulfate treatment. Changes in the measured metabolites indicate the biochemical response of the patient to dextran sulfate that is underpinning potential disease modification and the mechanisms of action of the drug in this patient population.
After an initial screening visit, patients had five weekly dosing of a single dextran sulfate (ILB®, Tikomed AB, Viken, Sweden, WO 2016/076780) injection of 1.0 mg/kg body weight in saline into the subcutaneous fat of the lower abdomen.
Peripheral venous blood samples were been collected from the patients after at least 15 minutes of complete rest, using the standard tourniquet procedure, from the antecubital vein into a single VACUETTE® polypropylene tube containing serum separator and clot activator (Greiner-Bio One GmbH, Kremsmunster, Austria). After 30 minutes at room temperature, blood withdrawals were centrifuged at 1,890×g for 10 min and the resulting serum samples were stored at −20° C. until analysis.
After defrost, an aliquot of 500 μl of each serum sample was supplemented with 1 ml of HPLC-grade acetonitrile, vortexed for 60 seconds, centrifuged at the maximum speed in a top-bench centrifuge to precipitate proteins. Supernatants were washed with large volumes of HPLC-grade chloroform to remove organic solvent, centrifuged and the upper aqueous phases were transferred in different tubes, clearly labeled to identify the sample and stored at −80° C. until analyzed to determine different water-soluble compounds.
A second aliquot of about 300 μl of each serum sample was light-protected and then processed to extract fat-soluble antioxidants using a method described in detail elsewhere (Lazzarino et al., Single-step preparation of selected biological fluids for the high performance liquid chromatographic analysis of fat-soluble vitamins and antioxidants. J Chromatogr A. 2017; 1527: 43-52.). Briefly, samples were supplemented with 1 ml of HPLC-grade acetonitrile, vigorously vortexed for 60 s and incubated at 37° C. for 1 h in a water bath under agitation, to allow the full extraction of lipid soluble compounds. Samples were then centrifuged at 20,690×g for 15 min at 4 C to precipitate proteins and the clear supernatants were saved at −80° C. until the HPLC analysis of fat-soluble vitamins and antioxidants.
In deproteinized serum samples, the following water-soluble compounds were separated and quantified by HPLC, according to methods described elsewhere (Tavazzi et al., Simultaneous high performance liquid chromatographic separation of purines, pyrimidines, N-acetylated amino acids, and dicarboxylic acids for the chemical diagnosis of inborn errors of metabolism. Clin Biochem. 2005; 38: 997-1008; Romitelli et al., Comparison of nitrite/nitrate concentration in human plasma and serum samples measured by the enzymatic batch Griess assay, ion-pairing HPLC and ion-trap GC-MS: The importance of a correct removal of proteins in the Griess assay. J Chromatogr B Analyt Technol Biomed Life Sci. 2007; 851: 257-267; Amorini et al., Metabolic profile of amniotic fluid as a biochemical tool to screen for inborn errors of metabolism and fetal anomalies. Mol Cell Biochem. 2012; 359: 205-216): hypoxhantine, xanthine, uric acid, malondialdehyde (MDA), nitrite, nitrate, N-acetylaspartate (NAA), citrulline (CITR), alanine (ALA), and ornithine (ORN). […]

[1] = post- vs pre-treatment, five weekly 1.0 mg/kg s.c.

dextran sulfate
serum CITR [1]: ameliorated | serum MDA [1]: decreased | serum NAA [1]: Significantly lower | serum ORN/CITR ratio [1]: ameliorated | serum nitrate [1]: decreased | serum nitrite+nitrate [1]: decreased | serum sum of oxypurines (hypoxanthine+xanthine+uric acid) [1]: decreased | serum uric acid [1]: decreased | serum α-tocopherol [1]: ameliorated | serum γ-tocopherol [1]: ameliorated | circulating values of ALA (post-treatment, equal to controls, significantly lower than pre-treatment): normalized
